pEC50: −log10 of the molar value.
Columns and labels:
ΔF508-CFTR [1] = target: T1, ΔF508-CFTR (Homo sapiens, UniProt P13569, DEL508-508); assay: CFTR cell surface levels using HRP-tagged ΔF508-CFTR expressing CFBE cells, in the presence of a co-corrector; format: cell-based; conditions: HRP-tagged ΔF508-CFTR expressing CFBE cells, in the presence of 3 μM co-corrector; for pEC50: read-out: EC50
T1 construct: host or cells: CFBE41o-, doxycycline-inducible
Summary of the method: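 Cells were seeded with 0.5 μg/mL doxycycline and held 68 h at 37 °C. Test compounds plus 3 μM co-corrector (final 0.1% DMSO) were then added for 20 h at 33 °C. Washed cells received HRP substrate, and luminescence was normalized between DMSO and 3 μM co-corrector controls.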

ΔF508-CFTR [2] = target: T1, ΔF508-CFTR; assay: CFTR cell surface levels using HRP-tagged ΔF508-CFTR expressing CFBE cells, intrinsic corrector capacity; format: cell-based; conditions: HRP-tagged ΔF508-CFTR CFBE41o- cells, compounds alone (intrinsic corrector capacity), 20 hours at 33° C.; for % Activation: positive control 3 μM corrector; for pEC50: read-out: EC50
Summary of the method: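 Here the cells express ΔF508-CFTR with horseradish peroxidase inserted in extracellular loop 4, so only rescued channel at the surface gives luminescent signal. Compounds act on their own, 20 h at the reduced temperature of 33 °C; values are percent activity relative to DMSO and a 3 μM corrector.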

T1 sequence (P13569 with tags, fused parts or gaps DEL508-508): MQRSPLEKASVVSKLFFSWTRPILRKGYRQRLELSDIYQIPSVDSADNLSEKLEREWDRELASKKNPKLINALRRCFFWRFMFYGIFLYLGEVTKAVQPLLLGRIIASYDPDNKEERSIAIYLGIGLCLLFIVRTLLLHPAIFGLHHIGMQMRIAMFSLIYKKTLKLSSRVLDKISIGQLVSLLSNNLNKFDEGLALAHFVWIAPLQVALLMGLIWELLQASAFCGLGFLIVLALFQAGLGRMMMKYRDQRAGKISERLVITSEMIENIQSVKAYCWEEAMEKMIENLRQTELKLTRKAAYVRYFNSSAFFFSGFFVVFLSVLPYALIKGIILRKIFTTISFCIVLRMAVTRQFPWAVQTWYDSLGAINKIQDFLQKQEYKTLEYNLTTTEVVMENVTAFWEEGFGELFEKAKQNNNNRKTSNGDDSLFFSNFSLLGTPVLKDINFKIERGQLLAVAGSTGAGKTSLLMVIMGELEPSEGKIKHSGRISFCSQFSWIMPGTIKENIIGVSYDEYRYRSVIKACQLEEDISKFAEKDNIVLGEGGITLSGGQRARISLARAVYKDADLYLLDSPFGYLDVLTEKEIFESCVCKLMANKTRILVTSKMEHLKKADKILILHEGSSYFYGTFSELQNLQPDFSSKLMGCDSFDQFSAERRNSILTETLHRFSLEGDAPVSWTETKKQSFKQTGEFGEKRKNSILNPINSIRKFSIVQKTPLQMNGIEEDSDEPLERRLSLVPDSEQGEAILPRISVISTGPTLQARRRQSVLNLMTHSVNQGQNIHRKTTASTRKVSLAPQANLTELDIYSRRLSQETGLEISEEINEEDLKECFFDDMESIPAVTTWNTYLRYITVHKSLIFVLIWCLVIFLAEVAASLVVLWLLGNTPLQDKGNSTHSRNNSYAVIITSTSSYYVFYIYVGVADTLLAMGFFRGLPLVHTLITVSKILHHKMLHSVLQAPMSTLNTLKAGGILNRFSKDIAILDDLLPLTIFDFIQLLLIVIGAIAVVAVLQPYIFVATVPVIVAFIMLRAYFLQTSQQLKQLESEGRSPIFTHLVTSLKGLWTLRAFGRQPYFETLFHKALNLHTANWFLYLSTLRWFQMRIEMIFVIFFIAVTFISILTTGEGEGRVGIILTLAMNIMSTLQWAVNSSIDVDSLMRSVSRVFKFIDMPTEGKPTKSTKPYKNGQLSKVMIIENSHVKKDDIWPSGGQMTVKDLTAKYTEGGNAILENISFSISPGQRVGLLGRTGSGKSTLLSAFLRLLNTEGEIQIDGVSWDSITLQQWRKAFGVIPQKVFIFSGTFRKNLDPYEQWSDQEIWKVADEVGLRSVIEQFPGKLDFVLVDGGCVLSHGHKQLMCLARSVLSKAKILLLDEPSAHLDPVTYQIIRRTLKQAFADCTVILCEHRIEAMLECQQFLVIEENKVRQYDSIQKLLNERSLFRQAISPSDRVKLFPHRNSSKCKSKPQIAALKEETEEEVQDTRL

**Q.** What does the source list for `COCCCN1CCN(c2cc(C(=O)O)nc3c2c(C)nn3-c2ccccc2)CC1` [compound 321, 4-[4-(3-methoxypropyl)piperazin-1-yl]-3-methyl-1-phenyl-1H-pyrazolo[3,4-b]pyridine-6-carboxylic acid]?
**A.** % Activation (ΔF508-CFTR [1]): 196.85%; pEC50 (ΔF508-CFTR [1]): 5.60; % Activation (ΔF508-CFTR [2]): 39.85%; pEC50 (ΔF508-CFTR [2]): 5.60

**Q.** For `Cc1nn(-c2ccccc2)c2nc(C(=O)O)cc(N3CCN(C(=O)N4CCOCC4)CC3)c12` [compound 322, 3-methyl-4-[4-(morpholine-4-carbonyl)piperazin-1-yl]-1-phenyl-1H-pyrazolo[3,4-b]pyridine-6-carboxylic acid], which “% Activation” value (ΔF508-CFTR [1]) is on record?
**A.** 154.55%

**Q.** What about the pEC50 (ΔF508-CFTR [1]) of the same molecule?
**A.** 5.48

**Q.** What about the “% Activation” value (ΔF508-CFTR [2]) of the same molecule?
**A.** 12.25%

**Q.** And the pEC50 (ΔF508-CFTR [2])?
**A.** < 5.00

**Q.** For `Cc1nn(-c2ccccc2)c2nc(C(=O)O)cc(N3CCN(CC(=O)N(C)C)CC3)c12` [compound 323, 4-{4-[2-(dimethylamino)-2-oxoethyl]piperazin-1-yl}-3-methyl-1-phenyl-1H-pyrazolo[3,4-b]pyridine-6-carboxylic acid], which “% Activation” value (ΔF508-CFTR [1]) is on record?
**A.** 128.4%

**Q.** And the pEC50 (ΔF508-CFTR [1])?
**A.** < 5.00

**Q.** And the “% Activation” value (ΔF508-CFTR [2])?
**A.** 8.143%

**Q.** And the pEC50 (ΔF508-CFTR [2])?
**A.** < 5.00

**Q.** `Cc1nn(-c2ccccc2)c2nc(C(=O)O)cc(N3CCC(N4CCOCC4)CC3)c12` [compound 324, 3-methyl-4-[4-(morpholin-4-yl)piperidin-1-yl]-1-phenyl-1H-pyrazolo[3,4-b]pyridine-6-carboxylic acid] was tested. Which “% Activation” value (ΔF508-CFTR [1]) did it give?
**A.** 279.1%

**Q.** And the pEC50 (ΔF508-CFTR [1])?
**A.** 5.60

**Q.** And the “% Activation” value (ΔF508-CFTR [2])?
**A.** 93.32%

**Q.** What about the pEC50 (ΔF508-CFTR [2]) of the same molecule?
**A.** 5.60

**Q.** How did the “% Activation” value (ΔF508-CFTR [1]) turn out when `CC(C)c1nn(-c2ccc(F)cc2F)c2nc(C(=O)O)cc(-c3cnc(N4CCC(C#N)CC4)nc3)c12` [compound 325, 4-[2-(4-cyanopiperidin-1-yl)pyrimidin-5-yl]-1-(2,4-difluorophenyl)-3-(propan-2-yl)-1H-pyrazolo[3,4-b]pyridine-6-carboxylic acid] was run?
**A.** 389.75%

**Q.** And the pEC50 (ΔF508-CFTR [1])?
**A.** 6.11

**Q.** What about the “% Activation” value (ΔF508-CFTR [2]) of the same molecule?
**A.** 177.1%

**Q.** What about the pEC50 (ΔF508-CFTR [2]) of the same molecule?
**A.** 5.92

**Q.** What does the source list for `CC(C)c1nn(-c2ccc(F)cc2F)c2nc(C(=O)O)cc(-c3ccc(N4CCC(C#N)CC4)nc3)c12` [compound 326, 4-[6-(4-cyanopiperidin-1-yl)pyridin-3-yl]-1-(2,4-difluorophenyl)-3-(propan-2-yl)-1H-pyrazolo[3,4-b]pyridine-6-carboxylic acid]?
**A.** % Activation (ΔF508-CFTR [1]): 360.83%; pEC50 (ΔF508-CFTR [1]): 6.24; % Activation (ΔF508-CFTR [2]): 180.53%; pEC50 (ΔF508-CFTR [2]): 6.01

**Q.** With `CC(C)c1nn(-c2ccc(F)cc2F)c2nc(C(=O)O)cc(-c3ccc(N4CCC(C#N)CC4)cc3)c12` [compound 327, 4-[4-(4-cyanopiperidin-1-yl)phenyl]-1-(2,4-difluorophenyl)-3-(propan-2-yl)-1H-pyrazolo[3,4-b]pyridine-6-carboxylic acid] as the molecule, how does the “% Activation” value (ΔF508-CFTR [1]) read?
**A.** 335.63%

**Q.** What about the pEC50 (ΔF508-CFTR [1]) of the same molecule?
**A.** 6.62

**Q.** What about the “% Activation” value (ΔF508-CFTR [2]) of the same molecule?
**A.** 176%

**Q.** And the pEC50 (ΔF508-CFTR [2])?
**A.** 6.43

**Q.** Which results are given for `CC(C)c1nn(-c2cccc(N(C)C)c2)c2nc(C(=O)O)cc(N3CCCCC3)c12` [compound 328, 1-[3-(dimethylamino)phenyl]-4-(piperidin-1-yl)-3-(propan-2-yl)-1H-pyrazolo[3,4-b]pyridine-6-carboxylic acid]?
**A.** % Activation (ΔF508-CFTR [1]): 422.25%; pEC50 (ΔF508-CFTR [1]): 6.33; % Activation (ΔF508-CFTR [2]): 196.9%; pEC50 (ΔF508-CFTR [2]): 6.17

**Q.** For `CC(C)c1nn(-c2cccc(N(C)C)c2)c2nc(C(=O)O)cc(N3CCC(C#N)CC3)c12` [compound 329, 4-(4-cyanopiperidin-1-yl)-1-[3-(dimethylamino)phenyl]-3-(propan-2-yl)-1H-pyrazolo[3,4-b]pyridine-6-carboxylic acid], which “% Activation” value (ΔF508-CFTR [1]) is on record?
**A.** 454.57%

**Q.** And the pEC50 (ΔF508-CFTR [1])?
**A.** 6.51

**Q.** What about the “% Activation” value (ΔF508-CFTR [2]) of the same molecule?
**A.** 239.4%

**Q.** And the pEC50 (ΔF508-CFTR [2])?
**A.** 6.25

**Q.** For `COC1CCN(c2cc(C(=O)O)nc3c2c(C(C)C)nn3-c2cccc(N(C)C)c2)CC1` [compound 330, 1-[3-(dimethylamino)phenyl]-4-(4-methoxypiperidin-1-yl)-3-(propan-2-yl)-1H-pyrazolo[3,4-b]pyridine-6-carboxylic acid], which “% Activation” value (ΔF508-CFTR [1]) is on record?
**A.** 509.93%

**Q.** What about the pEC50 (ΔF508-CFTR [1]) of the same molecule?
**A.** 6.71

**Q.** And the “% Activation” value (ΔF508-CFTR [2])?
**A.** 326.43%

**Q.** What about the pEC50 (ΔF508-CFTR [2]) of the same molecule?
**A.** 6.39

**Q.** Which results are given for `CC(C)c1nn(-c2cccc(N(C)C)c2)c2nc(C(=O)O)cc(N3CCC(CO)CC3)c12` [compound 331, 1-[3-(dimethylamino)phenyl]-4-[4-(hydroxymethyl)piperidin-1-yl]-3-(propan-2-yl)-1H-pyrazolo[3,4-b]pyridine-6-carboxylic acid]?
**A.** % Activation (ΔF508-CFTR [1]): 513.57%; pEC50 (ΔF508-CFTR [1]): 6.41; % Activation (ΔF508-CFTR [2]): 311.73%; pEC50 (ΔF508-CFTR [2]): 5.98

**Q.** `Cc1nn(-c2ccccc2)c2nc(C(=O)O)cc(O[C@H]3C[C@@H](N4CCS(=O)(=O)CC4)C3)c12` [compound 333, 4-{[cis-3-(1,1-dioxo-1λ^6,4-thiazinan-4-yl)cyclobutyl]oxy}-3-methyl-1-phenyl-1H-pyrazolo[3,4-b]pyridine-6-carboxylic acid] was tested. Which “% Activation” value (ΔF508-CFTR [1]) did it give?
**A.** 150.85%

**Q.** And the pEC50 (ΔF508-CFTR [1])?
**A.** 5.39

**Q.** And the “% Activation” value (ΔF508-CFTR [2])?
**A.** 27.26%

**Q.** And the pEC50 (ΔF508-CFTR [2])?
**A.** 5.38

**Q.** How did the “% Activation” value (ΔF508-CFTR [1]) turn out when `Cc1nn(-c2ccccc2)c2nc(C(=O)O)cc(OCCN3CCS(=O)(=O)CC3)c12` [compound 334, 4-[2-(1,1-dioxo-lλ^6,4-thiazinan-4-yl)ethoxy]-3-methyl-1-phenyl-1H-pyrazolo[3,4-b]pyridine-6-carboxylic acid] was run?
**A.** 226.6%

**Q.** And the pEC50 (ΔF508-CFTR [1])?
**A.** 5.72

**Q.** And the “% Activation” value (ΔF508-CFTR [2])?
**A.** 36.645%

**Q.** What about the pEC50 (ΔF508-CFTR [2]) of the same molecule?
**A.** 5.38

**Q.** What does the source list for `Cc1nn(-c2ccccc2)c2nc(C(=O)O)cc(OC[C@@H](F)C3CCOCC3)c12` [compound 335, 4-[(2S)-2-fluoro-2-(oxan-4-yl)ethoxy]-3-methyl-I-phenyl-1H-pyrazolo[3,4-b]pyridine-6-carboxylic acid]?
**A.** % Activation (ΔF508-CFTR [1]): 259.25%; pEC50 (ΔF508-CFTR [1]): 5.86; % Activation (ΔF508-CFTR [2]): 100.33%; pEC50 (ΔF508-CFTR [2]): 5.79

**Q.** For `Cc1nn(-c2ccccc2)c2nc(C(=O)O)cc(OC[C@H](F)C3CCOCC3)c12` [compound 336, 4-[(2R)-2-fluoro-2-(oxan-4-yl)ethoxy]-3-methyl-1-phenyl-1H-pyrazolo[3,4-b]pyridine-6-carboxylic acid], which “% Activation” value (ΔF508-CFTR [1]) is on record?
**A.** 297.8%

**Q.** And the pEC50 (ΔF508-CFTR [1])?
**A.** 5.88

**Q.** And the “% Activation” value (ΔF508-CFTR [2])?
**A.** 118.2%

**Q.** And the pEC50 (ΔF508-CFTR [2])?
**A.** 5.86

**Q.** With `Cc1nn(-c2ccccc2)c2nc(C(=O)O)cc(O[C@H]3CCN(C)C3)c12` [compound 337, 3-methyl-4-{[(3S)-1-methylpyrrolidin-3-yl]oxy}-1-phenyl-1H-pyrazolo[3,4-b]pyridine-6-carboxylic acid] as the molecule, how does the “% Activation” value (ΔF508-CFTR [1]) read?
**A.** 139.85%

**Q.** And the pEC50 (ΔF508-CFTR [1])?
**A.** 5.38

**Q.** What about the “% Activation” value (ΔF508-CFTR [2]) of the same molecule?
**A.** 15.48%

**Q.** What about the pEC50 (ΔF508-CFTR [2]) of the same molecule?
**A.** 5.12

**Q.** With `Cc1nn(-c2ccccc2)c2nc(C(=O)O)cc(O[C@@H]3CCN(C)C3)c12` [compound 338, 3-methyl-4-{[(3R)-1-methylpyrrolidin-3-yl]oxy}-1-phenyl-1H-pyrazolo[3,4-b]pyridine-6-carboxylic acid] as the molecule, how does the “% Activation” value (ΔF508-CFTR [1]) read?
**A.** 135.7%

**Q.** And the pEC50 (ΔF508-CFTR [1])?
**A.** 5.12

**Q.** What about the “% Activation” value (ΔF508-CFTR [2]) of the same molecule?
**A.** 12.64%

**Q.** And the pEC50 (ΔF508-CFTR [2])?
**A.** 5.12

**Q.** With `Cc1nn(-c2ccccc2)c2nc(C(=O)O)cc(OC3CCN(C)CC3)c12` [compound 339, 3-methyl-4-[(1-methylpiperidin-4-yl)oxy]-1-phenyl-1H-pyrazolo[3,4-b]pyridine-6-carboxylic acid] as the molecule, how does the “% Activation” value (ΔF508-CFTR [1]) read?
**A.** 126.85%

**Q.** What about the pEC50 (ΔF508-CFTR [1]) of the same molecule?
**A.** 5.12

**Q.** And the “% Activation” value (ΔF508-CFTR [2])?
**A.** 15.162%

**Q.** And the pEC50 (ΔF508-CFTR [2])?
**A.** 5.12

**Q.** How did the “% Activation” value (ΔF508-CFTR [1]) turn out when `Cc1nn(-c2ccccc2)c2nc(C(=O)O)cc(O[C@H]3C[C@@H](N(C)C)C3)c12` [compound 340, 4-{[cis-3-(dimethylamino)cyclobutyl]oxy}-3-methyl-1-phenyl-1H-pyrazolo[3,4-b]pyridine-6-carboxylic acid] was run?
**A.** 146%

**Q.** And the pEC50 (ΔF508-CFTR [1])?
**A.** 5.38

**Q.** What about the “% Activation” value (ΔF508-CFTR [2]) of the same molecule?
**A.** 18.86%

**Q.** And the pEC50 (ΔF508-CFTR [2])?
**A.** 5.12
